In patent US10349662B2, “Insecticidal compositions and methods of using the same” (priority 2011, dated 2019):
Where “and” joins values, the source holds several entries; their conditions need not be identical. Equal entries are not always repeated. Where two headings read alike, the source gives them in different places.

System: Aedes aegypti mosquitoes
Assay: Topical bioassay on adult female Aedes aegypti mosquitoes (knockdown 1 h, mortality 24 h; Colby calculation for combinations)
Type: in vivo
Description: Components of a composition can have a synergistic or additive effect on insecticidal activity. Components have an additive effect when the effect of the combination is equal to the sum of the effects of each individual component. In contrast, components have a synergistic effect when the effect of the combination exceeds the sum of the effects of the components when applied individually. The effect (E) of a combination of two compounds may be calculated using the Colby formula (1) (S. R. Colby, “Calculating Synergistic and Antagonistic Responses of Herbicide Combinations”, Weeds 1967, 15, 20-22):
If the actual insecticidal kill rate is the calculated value (E), then the action of the combination is additive. If the actual insecticidal kill rate exceeds the calculated value (E), then the action of the combination is super-additive, that is, a synergistic effect is present. If the insecticidal kill rate is lower than the calculated value (E), then the action of the combination is considered antagonistic.
Adult female Aedes aegypti mosquitoes were segregated in 18″×18″ screen cages based on date of eclosion, therefore the exact age of the mosquitoes were known for bioassays.
Ten female mosquitoes, aged four to six days after eclosion, were aspirated out of their respective cage and into a small glass jar. The mosquitoes were then anesthetized with CO2 gas for 30 seconds. After the adults were anesthetized, they were quickly placed on a plastic platform for treatment application. Treatments were serially diluted (using a BrandTech Scientific Transferpette S pipette (100-1000 μL), labeled centrifuge tubes, and a vortex mixer) from stocks of insecticides using reagent grade acetone as the diluent to concentrations as indicated for each treatment solution. A treatment solution may contain additional ingredients as indicated for each study.
Using a Hamilton PB00-1 Repeating Dispenser with a Hamilton 25 Microliter Syringe, 0.5 μL of each treatment solution was applied to the thorax of each mosquito. Immediately following the application of the treatment, the mosquitoes were gently transferred into a clean paper cup and covered with screen. The mesh screen prevented the mosquitoes from escaping and allowed the specimens to be viewed for ratings. A cotton ball soaked with 10% sucrose solution was inserted into a side hole of each cup for hydration and nourishment. Each treatment variable in the study was replicated three times using separate cups for each replication.
The untreated controls treatments were anesthetized for 30 seconds and gently transferred to the paper cups. The acetone treated control was treated exactly as described above except that the solution applied to each mosquito was undiluted acetone.
The condition of the mosquitoes in each cup was recorded at one hour and 24 hours after initial treatment. The condition classifications used were (1) alive and flying, (2) alive and unable to fly, or (3) dead. The percent mortality for each treatment was calculated by summing the mortalities of each replicate then calculating the percent dead from the total number of mosquitoes.
Where indicated, the mortality data were subjected to probit analysis using the Statistical Analysis System Version 9.1 program PROC PROBIT (SAS Institute (2003) PROC user's manual, version 9.1. SAS Institute, Cary, N.C.).

[1] = Aedes aegypti, topical, 24 h, read-out: % MORTALITY AFTER 24 HRS, active ingredient alone, 3%, adult, virgin, female Aedes aegypti
[2] = Aedes aegypti, topical, 24 h, read-out: % MORTALITY AFTER 24 HRS, single active, 0.01 μg
[3] = active ingredient alone, 3%, adult, virgin, female Aedes aegypti

For `C=C(C)[C@H]1CC=C(C)C(=O)C1` [(S)-(−)-Carvone], which “% MORTALITY AFTER 24 HRS” value (3%) is on record?
Its value is 20%.

For `CC1=CCCCC1` [1-Methyl-1-cyclohexene, 1-methyl-1-cyclohexene], which mortality at 3 % [1] is on record?
Its mortality at 3 % is 40%.

`CC1CC=CCC1` (centres unmarked) [4-Methylcyclohexene] was tested. Which mortality at 3 % [1] did it give?
The mortality at 3 % was 0%.

Which results are given for `CN1COCN(Cc2cnc(Cl)s2)/C1=N\[N+](=O)[O-]` [Thiamethoxam, thiamethoxam, reference compound]?
mortality at 2.5 ng (Aedes aegypti, topical, 24 h, read-out: % MORTALITY AFTER 24 HRS, 0.0025 μg): 3%; mortality at 7.5 ng (Aedes aegypti, topical, 24 h, read-out: % MORTALITY AFTER 24 HRS, single active, 0.0075 μg): 23%; mortality at 10 ng [2]: 7%

For `CC(C)=CC1C(C(=O)OCc2cccc(Oc3ccccc3)c2)C1(C)C` (stereo not drawn) [Sumithrin, sumithrin (d-phenothrin), reference compound], which mortality at 700 pg (Aedes aegypti, topical, 24 h, read-out: % MORTALITY AFTER 24 HRS, 0.0007 μg) is on record?
Its mortality at 700 pg is 27%.

What about the mortality at 300 pg (Aedes aegypti, topical, 24 h, read-out: % MORTALITY AFTER 24 HRS, insecticide alone, 0.0003 μg, adult, virgin, female Aedes aegypti) of the same molecule?
The mortality at 300 pg was 27%.

What about the mortality at 700 pg (Aedes aegypti, topical, 24 h, read-out: % MORTALITY AFTER 24 HRS, insecticide alone, 0.0007 μg, adult, virgin, female Aedes aegypti) of the same molecule?
Its mortality at 700 pg is 43%.

And the mortality at 700 pg (Aedes aegypti, topical, 24 h, read-out: % MORTALITY AFTER 24 HRS, single active, 0.0007 μg)?
The mortality at 700 pg was 27%.

How did the mortality at 3 % (Aedes aegypti, topical, 24 h, read-out: % MORTALITY AFTER 24 HRS, single active, 3%) turn out when `OCC1CC=CCC1` (centres unmarked) [3-Cyclohexene-1-methanol, 3-cyclohexene-1-methanol] was run?
The mortality at 3 % was 57%.

`CC1=CC(=O)CC(C)C1` (centres unmarked) [3.5-Dimethyl . . .] was tested. Which “% MORTALITY AFTER 24 HRS” value [3] did it give?
Its value is 30%.

`CC(C)(C)C1=CCCCC1` [1-tert-Butyl . . .] was tested. Which “% MORTALITY AFTER 24 HRS” value [3] did it give?
The value was 30%.

With `CN/C(=N\[N+](=O)[O-])NCc1cnc(Cl)s1` [Clothianidin, clothianidin, reference compound] as the molecule, how does the mortality at 5 ng (Aedes aegypti, topical, 24 h, read-out: % MORTALITY AFTER 24 HRS, 0.005 μg) read?
Its mortality at 5 ng is 7%.

What about the mortality at 10 ng (Aedes aegypti, topical, 24 h, read-out: % MORTALITY AFTER 24 HRS, 0.01 μg) of the same molecule?
Its mortality at 10 ng is 50%.

What about the mortality at 25 ng (Aedes aegypti, topical, 24 h, read-out: % MORTALITY AFTER 24 HRS, 0.025 μg) of the same molecule?
Its mortality at 25 ng is 40%.

What about the mortality at 10 ng [2] of the same molecule?
The mortality at 10 ng was 47%.

And the mortality at 15 ng (Aedes aegypti, topical, 24 h, read-out: % MORTALITY AFTER 24 HRS, single active, 0.015 μg)?
Its mortality at 15 ng is 0%.

And the mortality at 20 ng (Aedes aegypti, topical, 24 h, read-out: % MORTALITY AFTER 24 HRS, single active, 0.02 μg)?
Its mortality at 20 ng is 43%.

Which “% MORTALITY AFTER 24 HRS” value (3%) does the source give for `C=C(C)[C@@H]1CC=C(C)C(=O)C1` [(R)-(−)-Carvone] here?
Its value is 7%.

And the “% MORTALITY AFTER 24 HRS” value (single active, 3%)?
Its value is 13% and 10%.

With `C=C(C)[C@H]1CC=C(C)C(=O)C1` [(S)-(+)-Carvone] as the molecule, how does the “% MORTALITY AFTER 24 HRS” value (3%) read?
The value was 13%.

And the “% MORTALITY AFTER 24 HRS” value (single active, 3%)?
Its value is 7% and 17%.

Which “% MORTALITY AFTER 24 HRS” value [3] does the source give for `CC1=CC(=O)CC(C)C1` (centres unmarked) [3,5-Dimethyl . . .] here?
The value was 63%.

Which results are given for `C=C(C)[C@@H]1CC=C(CO)CC1` [(S)-(−)-Perillyl alcohol]?
% MORTALITY AFTER 24 HRS (1%): 0%; % MORTALITY AFTER 24 HRS (2%, listed as (S)-(−)-perillyl alcohol): 70%; % MORTALITY AFTER 24 HRS (2%, listed as (S)-Perillyl alcohol): 33%; % MORTALITY AFTER 24 HRS (single active, 2%): 80% and 67%

`CC1=CC(=O)CC(C)(C)C1` [Isophorone, isophorone] was tested. Which mortality at 3 % [1] did it give?
The mortality at 3 % was 57%.
